Data set [1] can be described thus: Hygroscopicity: moisture sorption isotherms on a dynamic moisture balance. It counts as physicochemical. As for the experimental part:
The moisture sorption isotherms of Form V was determined at 25° C. using a dynamic moisture balance (MB-300G) (VTI Corp., Hialeah, Fla.) calibrated for weight with 10 to 100 mg standard weights and for moisture with polyvinylpyrrolidone. The value for the weight equilibrium criterion for each relative humidity is calculated based on the weight of the sample and the drift in the balance (0.001 mg). A value of 8 min. was used for the time criteria. The moisture sorption profile of the dihydrate (Form V) (Adsorption 1/Desorption 1) after drying in vacuo for 2 h is shown in FIG. 5. Form V dehydrates on drying to a different crystal form as shown by vacuum X-ray powder diffraction in FIG. 6, losing approximately 8% by weight. For purposes of this specification, this dehydrated dihydrate is identified as […]. This form appears to be the same as that obtained by heating the sample at 125° C., but different from that obtained on drying at 60° C. in air for 24 h. The latter form is identified as Form III. The Form II (dehydrated dihydrate) is hygroscopic converting to a hemihydrate between ca. 10-40% RH and a tetrahydrate at 90% RH (FIG. 5 and FIG. 7). However, the XRPD pattern for the hemihydrate is the same as that of the dehydrated dihydrate (Form II). For purposes of this specification this hemihydrate and tetrahydrate are identified as Form II and Form IV, respectively.
Form I is non-hygroscopic with a maximum weight change of ca. 1% at 90% RH. On desorption, the tetrahydrate (Form IV) remains unchanged between 90-60% RH but converts to dihydrate (Form V) at 45-15% RH (FIG. 5 and FIG. 8).
Since the X-ray diffraction patterns of the dehydrated dihydrate and the hemihydrate are the same, we conclude that the hemihydrate is isostructural with the dehydrated dihydrate form obtained on drying in vacuo. […]

A short description of data set [2]: Thermal stability: heating the sample for 24 h at 60° C. in air. The data set is classed as physicochemical. How it is done:
The thermal stability of the Form V was evaluated by heating the sample for 24 h at 60° C. in air. The dihydrate (Form V) readily dehydrates within 10 min of heating losing approximately 8.5% by weight (corresponding to ca. 2 moles of water per mole base).

2 molecules from US8552193B2, “Alternative forms of the phosphodiesterase-4 inhibitor N-cyclopropyl-1-{3-[(1-oxidopryidin-3-yl)ethynyl]phenyl}-4-oxo-1,4-dihydro-1,8-naphthyridine-3-carboxyamide” (Merck Sharp & Dohme Corp., priority 2004, dated 2013) can be followed below.

As for `O=C(NC1CC1)c1cn(-c2cccc(C#Cc3ccc[n+]([O-])c3)c2)c2ncccc2c1=O` [Form I, N-Cyclopropyl-1-{3-[(1-oxidopryidin-3-yl)ethynyl]phenyl}-4-oxo-1,4-dihydro-1,8-naphthyridine-3-carboxyamide], in data set [1] (25° C., dynamic moisture balance), the “Hygroscopicity (in words)” value is “non-hygroscopic”. The maximum weight change entry in data set [1] (at 90% RH, 25° C.) is given as “ca. 1%”.
In the case of “Compound IX Dihydrate [Dihydrate (Form V)]”, in data set [1] (drying in vacuo for 2 h), the “weight lost on drying (dehydration to a different crystal form)” value was “approximately 8 % by weight”. Besides, in data set [2], the “time of heating until dehydration” value is not above 10 min and the “weight lost on heating (dehydration)” value is given as “approximately 8.5 % by weight”.
